Key:
Pyrenophora teres = test: B-10. Pyrenophora teres in vitro cell test; format: cell-based; details: 144 h, 20 ppm of active ingredient, 6 days incubation, liquid culture, absorbance, read-out: efficacy (inhibition of fungal growth)
Method: (§1) B-10. Pyrenophora teres In Vitro Cell Test [table] Fungicides were solubilized in DMSO and the solution used to prepare the required range of concentrations. The final concentration of DMSO used in the assay was ≤1%. A spore suspension of P. teres was prepared and diluted to the desired spore density. Fungicides were evaluated for their ability to inhibit spore germination and mycelium growth in liquid culture assay. The compounds were added in the desired concentration to the culture medium with spores. After 6 days incubation, fungi-toxicity of compounds was determined by spectrometric measurement of mycelium growth. Inhibition of fungal growth was determined by comparing the absorbance values in wells containing the fungicides with the absorbance in control wells without fungicides.

Botrytis cinerea [1] = test: B-11. Botrytis cinerea in vitro cell test; format: cell-based; details: 144 h, 20 ppm of active ingredient, 6 days incubation, liquid culture, absorbance, read-out: efficacy (inhibition of fungal growth)
Method: as §1, with “B-11. Botrytis cinerea” for “B-10. Pyrenophora teres”, “B. cinerea” for “P. teres”

[2] = Measurement of Log P values by HPLC on reversed phase columns (EEC directive 79/831 Annex V.A8); format: physicochemical; details: reversed phase HPLC column, method [a]: LC-UV, acidic range, 0.1% formic acid in water and acetonitrile as eluent
Method: A-1.1. Measurement of Log P Values
Measurement of Log P values as provided herein was performed according to EEC directive 79/831 Annex V.A8 by HPLC (High Performance Liquid Chromatography) on reversed phase columns with the following methods:
^[a] Log P value is determined by measurement of LC-UV, in an acidic range, with 0.1% formic acid in water and acetonitrile as eluent (linear gradient from 10% acetonitrile to 95% acetonitrile).
^[b] Log P value is determined by measurement of LC-UV, in a neutral range, with 0.001 molar ammonium acetate solution in water and acetonitrile as eluent (linear gradient from 10% acetonitrile to 95% acetonitrile).
^[c] Log P value is determined by measurement of LC-UV, in an acidic range, with 0.1% phosphoric acid and acetonitrile as eluent (linear gradient from 10% acetonitrile to 95% acetonitrile).
If more than one Log P value is available within the same method, all the values are given and separated by “+”. […]

Alternaria alternata = Alternaria alternata in vitro cell test; format: cell-based; details: 120 h, 20 ppm of active ingredient, liquid culture, 5 days incubation, spectrometric measurement of mycelium growth, read-out: efficacy (inhibition of fungal growth)
Method: as §1, with “B-6. Alternaria alternata” for “B-10. Pyrenophora teres”, “A. alternata” for “P. teres”, “5” for “6”

[3] = test system: Colletotrichum lindemuthianum; test: B-8. Colletotrichum lindemuthianum in vitro cell test; format: cell-based; details: 144 h, 20 ppm of active ingredient, 6 days incubation, liquid culture, absorbance, read-out: efficacy (inhibition of fungal growth)
Method: as §1, with “B-8. Colletotrichum lindemuthianum In” for “B-10. Pyrenophora teres In”, “of C. lindemuthianum” for “of P. teres”, “inhibit spores” for “inhibit spore”

Alternaria brassicae = test: In vivo preventive test on Alternaria brassicae (leaf spot on radish or cabbage); details: 500 ppm of active ingredient, preventive spray on radish or cabbage, evaluated 3 to 4 days after inoculation, read-out: efficacy
Method: B-1. In Vivo Preventive Test on Alternaria brassicae (Leaf Spot on Radish or Cabbage) [table] The active ingredients were made soluble and homogenized in a mixture of Dimethyl sulfoxide/Acetone/Tween® 80 and then diluted in water to the desired concentration. The young plants of radish or cabbage were treated by spraying the active ingredient prepared as described above. Control plants were treated only with an aqueous solution of Acetone/Dimethyl sulfoxide/Tween® 80. After 24 hours, the plants were contaminated by spraying the leaves with an aqueous suspension of Alternaria brassicae spores. The contaminated radish or cabbage plants were incubated for 3 to 4 days at 20° C. and at 100% relative humidity.

Botrytis cinerea [4] = test: In vivo preventive test on Botrytis cinerea (grey mould); details: 500 ppm of active ingredient, preventive spray on gherkin or cabbage, evaluated 4 to 5 days after inoculation, read-out: efficacy
Method: B-2. In Vivo Preventive Test on Botrytis cinerea (Grey Mould) [table] The active ingredients were made soluble and homogenized in a mixture of Dimethyl sulfoxide/Acetone/Tween® 80 and then diluted in water to the desired concentration. The young plants of gherkin or cabbage were treated by spraying the active ingredient prepared as described above. Control plants were treated only with an aqueous solution of Acetone/Dimethyl sulfoxide/Tween® 80. After 24 hours, the plants were contaminated by spraying the leaves with an aqueous suspension of Botrytis cinerea spores. The contaminated gherkin plants were incubated for 4 to 5 days at 17° C. and at 90% relative humidity. The contaminated cabbage plants were incubated for 4 to 5 days at 20° C. and at 100% relative humidity.

chromatographic logP [2]	SMILES	inhibition at 20 ppm (Pyrenophora teres)	inhibition at 20 ppm (Botrytis cinerea [1])	inhibition at 20 ppm (Alternaria alternata)	inhibition at 20 ppm [3]	pest or weed control at 500 ppm (Alternaria brassicae)	pest or weed control at 500 ppm (Botrytis cinerea [4])
4.33	O=C(NC[C@H](F)c1ccc(Cl)c(Cl)c1)c1c(Oc2cccc(C(F)(F)F)c2)nnc2ccccc12 (racemic) [I-182]	90 to 100%	80 to 89%	90 to 100%	80 to 89%		
4.66	O=C(N[C@H]1CCCc2cc(Br)ccc21)c1c(Oc2cccc(C(F)(F)F)c2)nnc2ccccc12 (racemic) [I-193]	90 to 100%	90 to 100%	70 to 79%	90 to 100%		
4.45	CCc1cccc2c1OCC[C@@H]2NC(=O)c1c(Oc2cccc(C(F)(F)F)c2)nnc2ccccc12 (racemic) [I-168]	90 to 100%	90 to 100%		90 to 100%		
4.44	Cc1ccc2c(c1)[C@@H](NC(=O)c1c(Oc3cccc(C(F)(F)F)c3)nnc3ccccc13)CC(C)(C)O2 (racemic) [I-173]	90 to 100%	90 to 100%				
2.98	O=C(N[C@H]1CCS(=O)(=O)c2ccccc21)c1c(Oc2cccc(C(F)(F)F)c2)nnc2ccccc12 [I-174]	80 to 89%	90 to 100%		80 to 89%		
4.74	Cc1ccc(C(F)(F)CNC(=O)c2c(Oc3cccc(C(F)(F)F)c3)nnc3cc(F)ccc23)c(C)c1 [I-166]	90 to 100%	90 to 100%	90 to 100%	90 to 100%		
3.69	O=C(N[C@H]1CCOc2cc(F)ccc21)c1c(Oc2cccc(C(F)(F)F)c2)nnc2ccccc12 [I-178]	90 to 100%	90 to 100%		90 to 100%	90 to 100%	
4.82	CC1(C)Cc2cc(Cl)c(F)cc2[C@@H](NC(=O)c2c(Oc3cccc(C(F)(F)F)c3)nnc3ccccc23)C1 (racemic) [I-197]	90 to 100%	90 to 100%				
4.33	O=C(NCCOc1ccc(C(F)(F)F)cc1Cl)c1c(Oc2cccc(C(F)(F)F)c2)nnc2ccccc12 [I-203]	90 to 100%	70 to 79%				
4.68	O=C(NCC(F)(F)c1cc(Cl)sc1Cl)c1c(Oc2cccc(C(F)(F)F)c2)nnc2ccccc12 [I-199]	90 to 100%	80 to 89%				
2.78	Cc1cc(C)n(CCNC(=O)c2c(Oc3cccc(C(F)(F)F)c3)nnc3ccccc23)n1 [I-240]	90 to 100%	80 to 89%				
3.3	O=C(NCCc1ccc2[nH]ccc2c1)c1c(Oc2cccc(C(F)(F)F)c2)nnc2ccccc12 [I-249]	90 to 100%	90 to 100%				
5.16	C=C(OCC)c1ccc(C(F)(F)CNC(=O)c2c(Oc3cccc(C(F)(F)F)c3)nnc3ccccc23)c(Cl)c1 [I-169]	90 to 100%	90 to 100%		80 to 89%	90 to 100%	

Further lines, the compound ahead of its results:

SMILES	chromatographic logP [2]	inhibition at 20 ppm (Pyrenophora teres)	inhibition at 20 ppm (Botrytis cinerea [1])	inhibition at 20 ppm (Alternaria alternata)	inhibition at 20 ppm [3]	pest or weed control at 500 ppm (Alternaria brassicae)	pest or weed control at 500 ppm (Botrytis cinerea [4])
O=C(NCCc1cccc2[nH]ccc12)c1c(Oc2cccc(C(F)(F)F)c2)nnc2ccccc12 [I-161]		90 to 100%	90 to 100%				
C[C@H](NC(=O)c1c(Oc2cccc(C(F)(F)F)c2)nnc2ccccc12)c1ccc(Cl)s1 (racemic) [I-080]	4.1	90 to 100%	90 to 100%	90 to 100%	90 to 100%		
Cc1ccc(CCNC(=O)c2c(Oc3cccc(C(F)(F)F)c3)nnc3ccccc23)o1 [I-075]	3.6	90 to 100%	90 to 100%	90 to 100%	90 to 100%		
Cc1cnn(CCNC(=O)c2c(Oc3cccc(C(F)(F)F)c3)nnc3ccccc23)c1 [I-076]	2.74	90 to 100%	90 to 100%		90 to 100%	80 to 89%	
O=C(N[C@H]1CCSc2ccc(F)cc21)c1c(Oc2cccc(C(F)(F)F)c2)nnc2ccccc12 (racemic) [I-095]	4.02	90 to 100%	90 to 100%	70 to 79%	80 to 89%		90 to 100%
O=C(N[C@H]1CCCc2ccc(Cl)cc21)c1c(Oc2cccc(C(F)(F)F)c2)nnc2ccccc12 [I-094]	4.44	90 to 100%	90 to 100%	70 to 79%	90 to 100%		
Cc1ccc(C(F)CNC(=O)c2c(Oc3cccc(C(F)F)c3)nnc3c2CCCC3)c(C)c1 (centres unmarked) [I-135]	3.53	90 to 100%	90 to 100%	90 to 100%	90 to 100%		
O=C(N[C@H]1CCCc2sc(C3CC3)nc21)c1c(Oc2cccc(C(F)(F)F)c2)nnc2ccccc12 (racemic) [I-091]	3.92	90 to 100%	90 to 100%	70 to 79%	80 to 89%		
O=C(N[C@H]1CCCc2ccc(Br)cc21)c1c(Oc2cccc(C(F)(F)F)c2)nnc2ccccc12 (racemic) [I-096]	4.54	90 to 100%	90 to 100%		90 to 100%		
O=C(C[C@H]1C[C@@]12CCc1cc(Br)ccc12)c1c(Oc2cccc(C(F)(F)F)c2)nnc2ccccc12 (mixture of isomers) [I-097]	4.74	90 to 100%	90 to 100%	80 to 89%	90 to 100%		80 to 89%
N#Cc1ccc(C(F)(F)CNC(=O)c2c(Oc3cccc(C(F)(F)F)c3)nnc3ccccc23)c(Cl)c1 [I-098]	3.94	90 to 100%	90 to 100%	80 to 89%			90 to 100%
